Test results published in patent US20200316038A1, “METHODS AND COMPOSITIONS FOR TREATING UREA CYCLE DISORDERS, IN PARTICULAR OTC DEFICIENCY” (CAMP4 THERAPEUTICS CORPORATION, priority 2017, published 2020).
Like-named read-outs stand apart in the source and are kept apart here.

B1: Wnt3a: WNT family secreted signaling protein; FRIZZLED activator (protein, UniProt P56704 19-352, looked up)
Protein Wnt-3a: SYPIWWSLAVGPQYSSLGSQPILCASIPGLVPKQLRFCRNYVEIMPSVAEGIKIGIQECQHQFRGRRWNCTTVHDSLAIFGPVLDKATRESAFVHAIASAGVAFAVTRSCAEGTAAICGCSSRHQGSPGKGWKWGGCSEDIEFGGMVSREFADARENRPDARSAMNRHNNEAGRQAIASHMHLKCKCHGLSGSCEVKTCWWSQPDFRAIGDFLKDKYDSASEMVVEKHRESRGWVETLRPRYTYFKVPTERDLVYYEASPNFCEPNPETGSFGTRDRTCNVSSHGIDGCDLLCCGRGHNARAERRREKCRCVFHWCCYVSCQECTRVYDVHTCK
B2: Anti mullerian hormone: member of the TGF-B gene family (protein, UniProt P03971 452-560, looked up)
Muellerian-inhibiting factor: SAGATAADGPCALRELSVDLRAERSVLIPETYQANNCQGVCGWPQSDRNPRYGNHVVLLLKMQVRGAALARPPCCVPTAYAGKLLISLSEERISAHHVPNMVATECGCR
B3: GDF2 (BMP9): member of BMP family and the TGF-B superfamily (protein, UniProt Q9UK05 320-429, looked up)
Growth/differentiation factor …: SAGAGSHCQKTSLRVNFEDIGWDSWIIAPKEYEAYECKGGCFFPLADDVTPTKHAIVQTLVHLKFPTKVGKACCVPTKLSPISVLYKDDMGVPTLKYHYEGMSVAECGCR
B4: Nodal: 13 kDa member of the TGF-B superfamily (protein, UniProt Q96S42 238-347, looked up)
Nodal homolog: HHLPDRSQLCRKVKFQVDFNLIGWGSWIIYPKQYNAYRCEGECPNPVGEEFHPTNHAYIQSLLKRYQPHRVPSTCCAPVKTKPLSMLYVDNGRVLLDHHKDMIVEECGCL

Columns and labels:
calcium channel = calcium channel blocker; cited from earlier work
ASL = experiment: RNA-seq, ASL expression in compound-treated primary human hepatocytes; format: cell-based
[1] = test system: multiple urea cycle-related genes; experiment: RNA-seq, compounds that modulate multiple urea cycle-related genes; format: cell-based; conditions: primary human hepatocytes; for Up-regulated Genes: urea cycle-related genes significantly increased by the compound
CPS1 = experiment: RNA-seq, CPS1 expression in compound-treated primary human hepatocytes; format: cell-based
ARG1 = experiment: RNA-seq, ARG1 expression in compound-treated primary human hepatocytes; format: cell-based
HSP90 = conditions: cited from earlier work
OTC [2] = experiment: OTC expression modulated by compounds (OTC/Geo Mean of HKs, DMSO = 1); format: cell-based, human; conditions: OTC expression; compound at 10 uM final concentration
SLC25A15 = experiment: RNA-seq, SLC25A15 expression in compound-treated primary human hepatocytes; format: cell-based; conditions: compounds that significantly increase SLC25A15 expression
ASS1 = experiment: RNA-seq, ASS1 expression in compound-treated primary human hepatocytes; format: cell-based
OTC [3] = experiment: RNA-seq, OTC expression in compound-treated primary human hepatocytes; format: cell-based
OTC [4] = experiment: siRNA transfection of primary human hepatocytes, OTC qPCR; format: cell-based; conditions: siRNA 10 nM, 48hrs, vs control non-targeting siRNA
Description: Primary human hepatocytes were reversed transfected with 6pmol siRNA using RNAiMAX Reagent (ThermoFisher Cat No13778030) in 24 well format, 1 ul per well (for a final cone of 10 nM). The following morning, the medium was removed and replaced with Modified Maintenance Medium (see above) for an additional 24 hrs. The entire treatment lasted 48hrs, at which point the medium was removed and replaced with RLT Buffer for RNA extraction (Qiagen RNeasy 96 QIAcube HT Kit Cat#74171). siRNAs were obtained from Dharmacon and are a pool of four siRNA duplex all designed to target distinct sites within the specific gene of interest (known as “SMARTpool”). They were tested against the control non-targeting siRNA D-001206-13-05.
Isolated RNA was processed for cDNA synthesis and qPCR as described above. Taqman assay used for OTC measurement: Hs00166892_m1

[5] = RNA-seq, primary human hepatocytes, compounds that significantly increase NAGS expression
[6] = RNA-seq, primary human hepatocytes, compounds that significantly increase ASL expression
[7] = RNA-seq, primary human hepatocytes, compounds that significantly increase ARG1 expression

Row | Molecule | number of urea cycle genes whose expression was significantly up-regulated [1] | Up-regulated Genes [1] | Fold change (Log 2) vs untreated (CPS1) [Log 2] | ARG1 expression, Fold change (Log 2) vs untreated (ARG1; [7]) [Log 2] | SLC25A15 expression, Fold change (Log 2) vs untreated (SLC25A15) [Log 2] | Fold change (Log 2) vs untreated (ASS1) [Log 2] | Fold change (Log 2) vs untreated (OTC [3]) [Log 2] | further results
1 | CCOC(=O)C1=C(COCCN)NC(C)=C(C(=O)OC)C1c1ccccc1Cl (stereo not shown) [Amlodipine Besylate] | – | – | – | – | – | – | – | IC50 (calcium channel): 1.9 nM; NAGS expression, Fold change (Log 2) vs untreated (NAGS; [5]): 0.73 Log 2
2 | Cc1cc(-c2nc(-c3ccc(OC(F)(F)F)cc3)no2)nn1Cc1ccnc(N2CCN(C3CC3)CC2)c1 [BAY 87-2243] | three | CPS1, ASL, ARG1 | 1.81 | 1.09 | – | – | – | ASL expression, Fold change (Log 2) vs untreated (ASL; [6]): 0.58 Log 2
4 | C[C@]12C[C@H](O)[C@H]3[C@@H](CCC4=CC(=O)CC[C@@]43C)[C@@H]1CC[C@@H]2C(=O)CO [Corticosterone] | – | – | – | – | 0.96 | – | – | –
5 | C[C@]12CC[C@H]3[C@@H](CCC4=CC(=O)CC[C@@]43C)[C@@H]1CC[C@@H]2C(=O)CO [Deoxycorticosterone] | four | CPS1, ASS1, ARG1, SLC25A15 | 3.79 | 1.37 | – | 0.6 | – | –
6 | CNC[C@H](O)c1ccc(O)c(O)c1 [Epinephrine] | five | – | 4.85 | – | 1.14 | 1.08 | – | ASL expression, Fold change (Log 2) vs untreated (ASL): 0.6 Log 2; ARG1 expression, Fold change (Log 2) vs untreated (ARG1): 2.28 Log 2
7 | COc1cccc2c1C(=O)c1c(O)c3c(c(O)c1C2=O)C[C@@](O)(/C(CO)=N/NC(=O)CCCCCN1C(=O)C=CC1=O)C[C@@H]3O[C@H]1C[C@H](N)[C@H](O)[C@H](C)O1 [INNO-206 (aldoxorubicin), aldoxorubicin] | three | NAGS, ASS1, OTC | – | – | – | 0.58 | 0.87 | NAGS expression, Fold change (Log 2) vs untreated (NAGS; [5]): 1.63 Log 2; Max Value (OTC/Geo Mean of HKs; DMSO = 1) (OTC [2]): 2.36
8 | O=C1NC(=O)/C(=C/c2cccc(C(F)(F)F)c2)S1 [SMI-4a] | – | – | – | – | – | 0.69 | – | NAGS expression, Fold change (Log 2) vs untreated (NAGS): 1.25 Log 2
9 | CN(C)[C@@H]1C(O)=C(C(N)=O)C(=O)[C@@]2(O)C(O)=C3C(=O)c4c(O)c(NC(=O)CN5CCCC5)cc(F)c4C[C@H]3C[C@@H]12 [TP-434 (Eravacycline), Eravacycline] | – | – | – | – | – | 0.76 | – | NAGS expression, Fold change (Log 2) vs untreated (NAGS; [5]): 1.5 Log 2
10 | O=C1CCC(N2C(=O)c3ccccc3C2=O)C(=O)N1 (stereo not shown) [Thalidomide] | five | NAGS, CPS1, ALS, OTC, ARG1 | 1.02 | 1.16 | – | – | 1.21 | ASL expression, Fold change (Log 2) vs untreated (ASL; [6]): 0.56 Log 2; NAGS expression, Fold change (Log 2) vs untreated (NAGS): 1.1 Log 2
11 | COc1nc(N)nc2c1ncn2[C@@H]1O[C@H](COP(=O)(N[C@@H](C)C(=O)OCC(C)(C)C)Oc2cccc3ccccc23)[C@@H](O)[C@@]1(C)O (stereo partly shown) [bms-986094 (inx-189)] | – | – | – | – | 1.18 | – | – | –
12 | Activin | four | NAGS, CPS1, OTC, ARG1 | 2.23 | 2.01 | – | – | 0.94 | NAGS expression, Fold change (Log 2) vs untreated (NAGS): 0.69 Log 2
13 | FGF: Fibroblast Growth Factor-acidic (FGF-1); FGFR activator | three | CPS1, OTC, ARG1 | 1.72 | 1.24 | – | – | 0.56 | –
14 | HGF/SF: Hepatocyte Growth Factor, scatter factor; c-Met activator | four | NAGS, CPS1, OTC, ARG1 | 2.02 | 1.51 | – | – | 0.56 | NAGS expression, Fold change (Log 2) vs untreated (NAGS): 0.56 Log 2
15 | IGF-1: Insulin-like growth factor I; IGF-1R activator | four | CPS1, OTC, ARG1, SLC25A15 | 2.22 | 1.89 | 0.8 | – | 0.76 | Max fold change in OTC (OTC [4]): 1.69
16 | IRF1 (DNA GAAAGTGAAAGT; siRNA; chemistry not fully specified) | – | – | – | – | – | – | – | Max fold change in OTC (OTC [4]): 1.70
17 | PDGF | four | CPS1, OTC, ARG1, SLC25A15 | 2.12 | 1.85 | 0.71 | – | 0.77 | –
18 | TNF-α | four | CPS1, ASS1, OTC, ARG1 | 2.31 | 1.87 | – | 0.58 | 0.87 | –
19 | Yy1 | – | – | – | – | – | – | – | Max fold change in OTC (OTC [4]): 1.71
20 | B1 | four | CPS1, OTC, ARG1, SLC25A15 | 2.6 | 2.07 | 0.7 | – | 0.92 | –
21 | B2 | three | CPS1, OTC, ARG1 | 2.35 | 2.06 | – | – | 0.81 | –
22 | B3 | five | – | 3.46 | 1.79 | 1.09 | 1.34 | – | NAGS expression, Fold change (Log 2) vs untreated (NAGS): 0.63 Log 2
23 | B4 | three | CPS1, OTC, ARG1 | 2.44 | 2.05 | – | – | 0.68 | –
